Data published in patent publication US10753938B2, “Beta-catenin inhibitors in cancer immunotherapy” (The University of Chicago, priority 2015, dated 2020).

B1: recombinant murine CCL4: CCL4 (R&D) added as migration stimulus at 500 ng/ml (protein)
chain: APMGSDPPTSCCFSYTSRQLHRSFVMDYYETSSLCSKPAVVFLTKRGRQICANPSEPWVTEYMSDLELN

Experiments:
[1] = test system: skin-derived CD11c^+CD103^+DCs; experiment: Transwell migration assay; type: cell-based, mouse
Description: Dendritic cell populations were isolated from lymph nodes and skin of naïve 6 week-old C57BL/6 mice. For this purpose, skin tissue was digested in a similar way as tumor tissue and\ cells from skin and lymph node were stained using the previously described protocol for cell sorting. Subsequently, living, CD45^+, CD11c^+, CD8α^− or CD8α^+ cells were isolated from the lymph node sample as well as living, CD45^+, CD11c^+, CD103^+ from skin samples. Migration assays were performed as described previously with minor adaptations using 5×10^5 cells/well and pre-treatment of DC with pertussis toxin (Sigma) at a final concentration of 20 ng/ml for 1.5 h in indicated (Spranger et al. Journal of immunology 185, 738-747 (2010); herein incorporated by reference in its entirety). As a migration stimulus, CCL4 (R&D) was added to RPMI complete medium at 500 ng/ml or 48 h conditioned media from BP or BPC cell lines were used. At the endpoint, cells from the lower compartment as well as the trans-well were harvested and counted using a standard Neubauer counting chamber. Percentage of migrated cells was calculated as followed: count lower-well/(count upper-well+ count lower-well)*100; with the sum of trans-well and lower well-being >90% of the input cell count.

[2] = test system: β-catenin-negative tumors (BP-SIY); experiment: Migration of pertussis toxin-pretreated effector 2C T cells into tumor; type: in vivo, mouse; details: T cells treated 12 h with PTX before injection
Description: For adoptive T cell transfer experiments, tumor development was induced and transfer of 1×10^6 or 10×10^6 T cells was performed when tumors reached 600-1000 mm^3 (approx. 5-6 weeks after induction). Transferred T cells were isolated from gender-matched 2C donor mice using the Miltenyi CD8^+ enrichment Kit II for untouched CD8^+ T cell isolation. After isolation, cells were activated for three days through plate-bound CD3 (0.2 μg/ml; 145-2C11 clone; Biolegend) and CD28 (0.5 μg/ml; 37.51 clone; BD) antibodies. Following activation, T cells were stained with 1 μm CFSE-solution (eBioscience) for 8 min at 37° C. before intravenous injection. Tumor tissue, tumor-draining LNs, and spleen were harvested 3 days following adoptive transfer of T cells and used for flow cytometric analysis. […] For tumor tissues, the entirety of each sample was acquired and total number of CD3^+CD8^+ T cells and transferred 2C cells was assessed. The percentage 2C cells was calculated as [(100/CD3^+/CD8^+ T cells)*2C] and also the number of 2C cells per gram tumor. […]
To assess if lack of T cell infiltration was due to a defect in effector T cell recruitment, an adoptive T cell transfer approach was used, transferring in vitro-activated effector 2C T cells into tumor bearing BP-SIY and BPC-SIY mice. As a first assessment, only the capacity of the effector T cells to migrate into the tumor within 72 h was analyzed. […]

Molecule | DC migration in response to CCL4 ([1]; pretreatment of DC with pertussis toxin) | migration of effector 2C T cells into tumor [2] | DC migration ([1]; CCL4 as migration stimulus)
pertussis toxin | eliminated | completely block the migration | –
B1 | – | – | migrated in response to CCL4
